Values quoted from earlier work, collected in patent publication US20240180159A1, “NEW OIL SUSPENSION CONCENTRATE COMPOSITION” (SYNGENTA CROP PROTECTION AG, priority 2021, published 2024).

Settings: basic pH 8-14 conditions

For `CN1COCN(Cc2cnc(Cl)s2)/C1=N\[N+](=O)[O-]` [thiamethoxam], the susceptibility to hydrolysis is given as “susceptible to hydrolysis”.
